# Measured values reported in US6867235B2, “Helianthrone derivatives as anti-cancer agents” (Yeda Research and Development Co. Ltd., priority 2000, dated 2005).
# Legend:
# [1] = system: rat aorta rings, endothelial cell microvessels; test: Rat aorta ring microvessel formation in fibrin gel; assay type: cell-based; details: 0.1-10 μg/ml (0.2-20 μM)
# Excerpt: Rat aorta is carved into rings which are embedded in fibrin gels and cultured in MCDB 131 medium. Endothelial cells that detach from the aorta rings generate branching microvessels according to a method previously described (Nicosia R. F. and Ottinetti A. Growth of microvessels in serum-free matrix culture of rat aorta. Laboratory Investigation 63: 115, 1990).
# tumor neovascularization = test: Tumor neovascularization in tumor-bearing mice; details: mouse, in vivo
# Excerpt: These hitherto unknown attributes were detected while studying the effects of hypericin and of helianthrone derivatives on breast adenocarcinoma tumors induced in mice with the DA-3^HI cell line and on murine anaplastic squamous carcinoma tumors induced with the SQ-2 cell line. Both are highly metastatic tumors and if surgically resected after having reached a diameter larger than 5 mm, the mice will go on to develop metastases in the lungs and liver. The metastases cause death of the animals within approximately two months following surgery.
# By preventing development of new blood vessels to supply a growing metastasis, the rapidly growing metastatic focus is deprived of nutrients and oxygen for its rapidly multiplying cells and the lesion degenerates.
# [2] = system: U251 human glioblastoma cells; assay type: cell-based; details: glioblastoma cells in culture, complete darkness
# Protocol: Human HL-60 leukemic cells were grown in RPMI-1640 supplemented with 15% fetal calf serum, […] and 100 units/ml penicillin-streptomycin. Human erythroleukemia K-562 cells (derived from a chronic myeloid leukemia pateient) were grown in the same medium supplemented with 10% fetal calf serum. These cells and the human U251 glioblastoma, U87MG glioblastoma and LAN5 neuroblastoma cells used in the experiments are available from the ATCC. All cell lines were cultured in a humidified 5% CO2/95% air atmosphere at 37° C.
# Cell viability was monitored by the MTT assay which measures reduction of 3-(4,5-dimethylthiazol-2-yl)-2,5-diphenyl tetrazolium bromide to formasan by mitochondria of viable cells as described in Mossman, T., J. Immunogen., 21, 235-248 (1983). The cells are incubated with MTT for four hours at 37° C. and analyzed in an ELISA reader at 560 nm. The optical density of formasan generated by untreated cell cultures (O.D. control) is defined as one MTT unit. The number of MTT units in culture samples undergoing treatments is calculated as the ratio (O.D.sample−O.D.blank)/O.D.control).
# Three human malignant cell lines were evaluated to sensitivity to dimethyl TMH in vitro. […] The medium was aspirated, the adherent monolayer was washed with phosphate-buffered saline, and cell viability was monitored by the MTI assay. […]
# [3] = system: DA-3HI induced breast adenocarcinoma tumors; test: Survival after resection of DA-3HI breast adenocarcinoma tumors with hypericin; assay type: in vivo, BALB/c mice; details: for survival rate: 5 days apart
# Protocol: The primary tumor size at which metastases occur in DA-3^HI-derived breast adenocarcinoma tumors was initially calibrated in BALB/c mice inoculated with 5×10^5 DA-3^HI tumor cells intradermally. […] If the resection was performed on tumors with larger diameters, the mice died of metastases. A diameter of approximately 5 mm appears to be the cutoff at which metastases begin to spread.
# DA-3^HI tumors were induced in 12-week old female BALB/c mice as described above. When the tumors reached diameters of 8-10 mm the mice were divided into four groups. One group of 19 mice was left untreated and in the three other groups the tumors were surgically removed. One of the resected groups received two intraperitoneal (i.p.) injections with 200 μg hypericin (HY) each 5 days apart beginning two days prior to surgery (16 mice). Another resected group received five i.p. injections with 200 μg hypericin each, 5 days apart beginning two days prior to surgery (17 mice). One resected group was not treated with hypericin (16 mice). The mice were then followed for survival. […] However, administration of 2 i.p. injections of hypericin increased the survival rate to 35% and administration of 5 hypericin doses increased the survival rate to 60%.
# [4] = system: SQ2 squamous cell carcinoma tumors; test: Survival after resection of SQ2 squamous cell carcinoma tumors with hypericin; assay type: in vivo, BALB/c mice; details: for mice alive beyond 240 days following tumor cell inoculation: resection
# Protocol: In another set of experiments squamous cell carcinoma tumors were generated in BALB/c mice by inoculating 5×10^5 SQ2 cells per mouse. When the tumors reached a diameter of 1.0-1.2 cm in diameter they were removed by surgery (resected). One group of 5 mice also received three i.p injections of hypericin of 100 μg/mouse prior to surgery and two regimens of 50 μg/mouse post surgery at intervals of 5 days between each dosing. Another group of 8 mice received six hypericin i.p. injections of 100 μg/mouse prior to surgery and five regimens of 50 μg/mouse post surgery at intervals 5 days apart. One control group of 17 mice underwent surgery only without treatments with hypericin and another control group remained untreated (22 mice). Animal survival was then followed.
# [5] = system: DA-3HI metastatic lesions; test: Morphology of metastatic lesions after resection of DA-3HI tumors; assay type: in vivo, BALB/c mice; details: 5 doses of 200 μg/mouse at 5 day intervals, two months after surgery
# Protocol: In an effort to understand how hypericin prevents the growth of metastases the experiment was repeated and the morphology of the metastatic lesions then followed. Primary DA-3^HI tumors were induced in BALB/c mice. Surgery was conducted on the tumors when diameters reached 8-10 mm. These mice (17 animals) were divided into two groups, one treated with 5 doses of hypericin 200 μg/mouse at 5 day intervals as previously described (9 animals) and another group served as untreated control (8 mice). The animals were grown for two more months. The mice were then sacrificed and the internal organs examined for metastatic lesions. […] This was evident only when hypericin injections were initiated very early prior to the resection of the primary tumor. These observations indicate that hypericin inhibits angiogenesis (growth of new vasculature). […] Since angiogenesis is primarily mediated by vascular endothelium growth factor (VEGF), hypericin may interfere with either the formation or secretion of VEGF from tumor cells or with its targeting of growth inducing receptors on vascular endothelial cells. […] Interference with the signal transduction pathway that culminates in the production of VEGF might be the mechanism for hypericin or helianthrone derivative-mediated inhibition of the VEGF effect that results in inhibition of metastatic lesion growth.
# [6] = system: heparanase-induced angiogenesis; test: Heparanase-induced angiogenesis in the anterior chamber of the rat eye; assay type: in vivo, rats; details: four i.p. injections of 750 μg, 5 days after heparanase
# Protocol: Four rats (250 g each) were given three intraperitoneal injections of hypericin (750 μg per dose in 5 ml water containing 3.5% ethanol) at four day intervals. The following day the animals were anesthetized with xylazine-ketamine and angiogenesis (formation of new blood vessels) was induced by inoculating 2 μl heparanase (30 μg/ml) into the frontal compartment of the eye in the cornea of one of the two eyes in each rat. A fourth intraperitoneal injections of 750 μg hypericin was applied the next day. Two positive control animals received only 2 μl heparanase (30 μg/ml) into the frontal compartment of the eye. Angiogenesis was then allowed to develop for 5 days at which time animals were anesthetized with xylazine-ketamine and examined and photographed under a binocular microscope for development of blood vessels in the anterior chamber of the eye.
SMILES,formation of organized microvessels [1],neovascularization of tumors (tumor neovascularization),effect on the cultures at doses at which dimethyl-TMH kills cells [2],inhibition of the primary tumor ([3]; DA-3HI breast adenocarcinoma tumors),"survival rate ([3]; day 89, resection plus 2 i.p. injections of 200 μg) [%]","survival rate ([3]; day 89, resection plus 5 i.p. injections of 200 μg) [%]",inhibition of the primary tumor ([4]; SQ-2 anaplastic squamous carcinoma tumors),"mice alive beyond 240 days following tumor cell inoculation ([4]; six i.p. injections 100 μg/mouse prior to surgery, five of 50 μg/mouse post surgery) [%]","mice alive beyond 240 days following tumor cell inoculation ([4]; three i.p. injections 100 μg/mouse prior to surgery, two of 50 μg/mouse post surgery) [%]",protection rates due to hypericin administration ([4]; versus surgery only),appearance of metastatic lesions in internal organs [5],blood vessels in the anterior chamber of the eye [6]
"Cc1ccc2c(=O)c3c(O)cc(O)c4c5c(O)cc(O)c6c(=O)c7ccc(C)cc7c(c65)c(c2c1)c34 [dimethyl tetrahydroxyhelianthrone, 10,13-dimethyl-1,3,4,6-tetrahydroxyhelianthrone]",inhibition of formation of the organized microvessels,prevented neovascularization,,,,,,,,,,
Cc1cc(O)c2c(=O)c3c(O)cc(O)c4c5c(O)cc(O)c6c(=O)c7c(O)cc(C)c8c1c2c(c34)c(c78)c65 [hypericin],inhibition of formation of the organized microvessels,prevented neovascularization,no effect,not inhibited,35,60,not inhibited,40,60,20-40%,"much smaller, somewhat more necrotic and devoid of such vasculature",absence of blood vessels
